According to paper PMC3448946 (Biochemistry, 2011):
Read-outs that look alike come from different tables or passages of the source.

What was measured:
[1] = biological target: T1, MSOX (monomeric sarcosine oxidase) (Bacillus sp., UniProt P40859); assay: Spectral titration of MSOX; format: binding; details: for Kd: 50 mM potassium phosphate buffer
T1 sequence (P40859 1-390): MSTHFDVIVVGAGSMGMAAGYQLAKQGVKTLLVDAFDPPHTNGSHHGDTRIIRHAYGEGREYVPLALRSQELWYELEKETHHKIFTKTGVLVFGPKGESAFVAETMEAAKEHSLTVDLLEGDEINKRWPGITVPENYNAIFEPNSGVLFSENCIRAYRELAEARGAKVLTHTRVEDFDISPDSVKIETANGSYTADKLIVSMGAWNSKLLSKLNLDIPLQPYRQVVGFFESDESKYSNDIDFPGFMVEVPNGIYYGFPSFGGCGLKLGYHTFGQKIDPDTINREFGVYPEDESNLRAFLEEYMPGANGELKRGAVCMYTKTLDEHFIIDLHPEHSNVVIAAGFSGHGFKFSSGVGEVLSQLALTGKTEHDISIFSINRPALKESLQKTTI

[2] = biological target: Lys265Met MSOX mutant (Bacillus sp., UniProt P40859, K266M); details: absorption spectrum of mutant unaffected by 2.0 M potassium chloride
[3] = biological target: T2, reduced MSOX (Bacillus sp., UniProt P40859)
[4] = biological target: GOX (glucose oxidase) (Aspergillus niger, UniProt P13006); assay: biochemical
Sequence of GOX (glucose oxidase) (P13006 23-605 limits assumed): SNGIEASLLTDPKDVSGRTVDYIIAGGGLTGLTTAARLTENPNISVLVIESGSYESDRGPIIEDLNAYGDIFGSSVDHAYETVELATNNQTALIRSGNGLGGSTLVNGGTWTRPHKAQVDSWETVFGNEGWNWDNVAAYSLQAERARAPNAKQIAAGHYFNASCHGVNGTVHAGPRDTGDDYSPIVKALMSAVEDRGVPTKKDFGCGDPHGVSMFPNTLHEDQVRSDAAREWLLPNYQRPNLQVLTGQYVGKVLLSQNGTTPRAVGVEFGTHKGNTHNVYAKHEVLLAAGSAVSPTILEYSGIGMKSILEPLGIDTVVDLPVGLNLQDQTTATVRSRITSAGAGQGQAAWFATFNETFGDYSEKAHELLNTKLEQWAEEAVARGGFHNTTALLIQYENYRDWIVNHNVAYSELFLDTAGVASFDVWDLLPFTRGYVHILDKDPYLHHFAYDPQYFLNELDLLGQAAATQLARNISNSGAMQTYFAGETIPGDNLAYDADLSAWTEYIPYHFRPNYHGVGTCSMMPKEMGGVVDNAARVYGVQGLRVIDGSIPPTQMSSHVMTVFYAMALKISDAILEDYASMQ

[5] = biological target: T2, reduced MSOX; details: absence of chloride; cited from earlier work
[6] = biological target: T2, reduced MSOX; assay: biochemical

Compound: CSCC(=O)O [MTA, methylthioacetate]
- Kd ([1]; MSOX + MTA ⇄ MSOX•MTA, no additions, pH 8.0, 25 °C): 2.43 ± 0.02 mM
- Kd ([1]; MSOX + MTA ⇄ MSOX•MTA, plus 667 mM sodium sulfate, pH 8.0, 25 °C, plus 667 mM sodium sulfate): 1.84 ± 0.01 mM
- Kd ([1]; MSOX•Cl− + MTA ⇄ MSOX•Cl−•MTA, pH 8.0, containing 2.0 M potassium chloride, 25 °C, absorbance at 528 nm): 4.9 ± 0.07 mM

Compound: Cl [chloride]
- Chloride binding to Lys265Met MSOX [2]: eliminates chloride binding
- Chloride binding at oxygen activation site of reduced MSOX in solution [3]: not bound
- Kd [4]: 6.2 ± 0.1 mM

Compound: O=O [oxygen]
- Second-order rate constant for reaction of reduced MSOX with oxygen ([3]; 50 mM potassium phosphate, pH 8.0, 2.0 M potassium chloride, 25 °C, monitored at 454 nm): 2.48 ± 0.03 × 10^5 M^−1 s^−1
- Second-order rate constant for reaction of reduced MSOX with oxygen [5]: 2.83 ± 0.07 × 10^5 M^−1 s^−1
- Kd [6]: ≥ 10 mM

Compound: O=S(=O)([O-])[O-].[Na+].[Na+] [sulfate, sodium sulfate]
- Binding of sulfate to MSOX ([1]; 667 mM sodium sulfate control for ionic strength): does not bind
